Reference: patent US20240116988A1, “ANTI-ROR1 MACROCYCLIC PEPTIDES AND COMPOSITIONS” (BRISTOL-MYERS SQUIBB COMPANY, priority 2022, published 2024)
Starred links: 1 amine or outer side, 2 acyl side, 3 side chain; linkers in the order of their positions; H or OH if unused. Positions of bridges follow the written chain, without caps; N, C: chain ends. Non-standard residues stand in square brackets, D forms with d. Residues, ends and D or L forms follow the SMILES beside them. ξ: configuration not given here. X1 = CC(C)[C@H](CC(=O)[C@@H](N[*:1])C(C)C)C(=O)[*:2]; NMeF = CN[C@@H](Cc1ccccc1)C(=O)O; NMeNle = CCCC[C@H](NC)C(=O)O; NMeA = CN[C@@H](C)C(=O)O; ξD = NC(CC(=O)O)C(=O)O

Biological target: T1, human ROR1 (Homo sapiens, UniProt Q01973)
T1 construct: host or cells: HEK 293T cells, Tet-on system induced with doxycycline
T1 sequence (Q01973 30-937): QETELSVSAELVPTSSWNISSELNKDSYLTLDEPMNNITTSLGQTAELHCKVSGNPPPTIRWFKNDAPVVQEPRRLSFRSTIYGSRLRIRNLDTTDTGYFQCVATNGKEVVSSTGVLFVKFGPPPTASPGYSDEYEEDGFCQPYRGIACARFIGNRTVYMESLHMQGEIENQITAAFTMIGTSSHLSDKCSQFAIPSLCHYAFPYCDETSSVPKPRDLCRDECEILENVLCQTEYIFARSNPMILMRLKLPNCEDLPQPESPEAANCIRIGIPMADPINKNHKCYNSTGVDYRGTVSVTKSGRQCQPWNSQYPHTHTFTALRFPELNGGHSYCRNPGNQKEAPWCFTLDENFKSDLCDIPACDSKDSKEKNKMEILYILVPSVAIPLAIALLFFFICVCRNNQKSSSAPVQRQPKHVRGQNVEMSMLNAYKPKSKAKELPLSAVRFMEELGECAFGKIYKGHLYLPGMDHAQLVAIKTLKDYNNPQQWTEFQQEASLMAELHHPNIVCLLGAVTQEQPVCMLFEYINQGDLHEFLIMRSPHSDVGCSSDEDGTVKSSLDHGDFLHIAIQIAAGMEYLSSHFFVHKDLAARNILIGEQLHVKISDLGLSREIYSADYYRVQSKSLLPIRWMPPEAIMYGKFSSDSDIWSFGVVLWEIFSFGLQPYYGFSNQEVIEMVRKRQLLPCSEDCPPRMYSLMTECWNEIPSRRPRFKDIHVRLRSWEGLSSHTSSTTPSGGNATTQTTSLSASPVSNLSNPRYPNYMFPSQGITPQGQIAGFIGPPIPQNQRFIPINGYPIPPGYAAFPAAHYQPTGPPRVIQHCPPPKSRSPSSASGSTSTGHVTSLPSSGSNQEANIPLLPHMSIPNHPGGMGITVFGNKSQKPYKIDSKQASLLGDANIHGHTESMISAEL
Test: ROR1 high content cell-based binding assay
Details: read-out: ROR1 Binding 293T Human HC Cell Based Assay IC50
Method: ROR1 high content cell-based binding assay: Human embryonic kidney 293T cells (293T) expressing human ROR1 with Tet-on system by doxycycline were used (Arctic-488134) for the assessment of inhibition of the binding of fluorescently-labeled competing peptide (“Probe”) that specifically binds to human ROR1. […] Cryopreserved vials were thawed in a 37° C. water bath. Cells were washed in assay culture media [DMEM (Life Technologies Inc. Cat. […] Cat. No. 15140-122) and […] dox] and diluted 1.0×10^5 cells/mL. Cells were seeded into PDL-coated 384 well plates (BD Falcon Cat. No. 356663) at 2,000 cells/20 μL. Plates were allowed to incubate for 10 minutes at room temperature and then transferred to a 37° C./5% CO2 incubator for overnight incubation. The next day, 125 nL of the test compound was added using an ECHO followed by the addition of 5 μL/well of 5-FAM-labeled probe to cells at a final concentration of 30 nM. Sample were incubated for 1 hour at 37° C. for 1 hour, followed by 3 washes in […] of dPBS. Cells were fixed by adding 8% (w/v) formaldehyde (Sigma Cat. No. 252549), 20 μg/mL Hoechst (Thermo Scientific Cat. No. 62249) in PBS for 20 minutes at room temperature. The plates were washed 3 more times in dPBS and 15 μl of PBS was left in the wells following the last wash. The plates were sealed, and data was using obtained using a CellInsight NXT High Content Screening Platform IC903000 (Thermo Scientific).

Structure (SMILES) | IC50
CC(C)C[C@@H]1NC(=O)[C@H](Cc2ccccc2)NC(=O)CSC[C@@H](C(=O)NCC(N)=O)NC(=O)[C@H](C)NC(=O)[C@H](Cc2c[nH]c3ccccc23)NC(=O)[C@H](Cc2ccccc2)NC(=O)[C@H](Cc2c[nH]c3ccccc23)NC(=O)CNC(=O)[C@H](Cc2ccc(O)cc2)NC(=O)[C@H](CCCNC(=N)N)NC(=O)[C@H](C(C)C)NC(=O)[C@H](Cc2c[nH]c3ccccc23)NC1=O [Example 1004] ({CH2CO}-FLWVRYGWFWACG-NH2; thioether N-12) | 0.099 µM
CC(C)C[C@@H]1NC(=O)[C@H](Cc2c[nH]c3ccccc23)NC(=O)[C@H](Cc2ccccc2)NC(=O)[C@H](Cc2c[nH]c3ccccc23)NC(=O)CNC(=O)[C@H](CO)NC(=O)[C@H](Cc2ccc(O)cc2)NC(=O)[C@H](C(C)C)NC(=O)[C@H](CCCNC(=N)N)NC(=O)[C@H](Cc2ccccc2)NC(=O)[C@H](Cc2ccccc2)NC(=O)CSC[C@@H](C(=O)NCC(N)=O)NC1=O [Example 1006] ({CH2CO}-FFRVYSGWFWLCG-NH2; thioether N-12) | 0.147 µM
CC(C)C[C@@H]1NC(=O)[C@H](Cc2c[nH]c3ccccc23)NC(=O)[C@H](Cc2ccc(O)cc2)NC(=O)[C@H](Cc2c[nH]c3ccccc23)NC(=O)CNC(=O)C(CC(=O)O)NC(=O)[C@H](Cc2ccc(O)cc2)NC(=O)[C@H](C(C)C)NC(=O)[C@@H]2CCCN2C(=O)[C@H](Cc2ccc(O)cc2)NC(=O)[C@H](Cc2ccccc2)NC(=O)CSC[C@@H](C(=O)NCC(N)=O)NC1=O (some centres unmarked) [Example 1009] ({CH2CO}-FYPVY[ξD]GWYWLCG-NH2; thioether N-12) | 0.054 µM
CC(C)C[C@@H]1NC(=O)[C@H](Cc2c[nH]c3ccccc23)NC(=O)[C@H](Cc2ccccc2)NC(=O)[C@H](Cc2c[nH]c3ccccc23)NC(=O)CNC(=O)CNC(=O)[C@H](CC(C)C)NC(=O)[C@H](C(C)C)NC(=O)[C@H](CC(C)C)NC(=O)[C@H](Cc2ccc(O)cc2)NC(=O)[C@H](Cc2ccccc2)NC(=O)CSC[C@@H](C(=O)NCC(N)=O)NC1=O [Example 1010] ({CH2CO}-FYLVLGGWFWLCG-NH2; thioether N-12) | 0.821 µM
CC(C)C[C@@H]1NC(=O)[C@H](Cc2c[nH]c3ccccc23)NC(=O)[C@H](Cc2ccccc2)NC(=O)[C@H](Cc2c[nH]c3ccccc23)NC(=O)CNC(=O)[C@H](CC(=O)O)NC(=O)[C@H](CCCNC(=N)N)NC(=O)[C@H](C(C)C)CC(=O)[C@H](C(C)C)NC(=O)[C@H](Cc2ccc(O)cc2)NC(=O)[C@H](Cc2ccccc2)NC(=O)CSC[C@@H](C(=O)NCC(N)=O)NC1=O [Example 1011] ({CH2CO}-FY[X1]RDGWFWLCG-NH2; thioether N-11) | 0.168 µM
CC(C)C[C@@H]1NC(=O)[C@H](Cc2ccccc2)NC(=O)CSC[C@@H](C(=O)NCC(N)=O)NC(=O)[C@H](C)NC(=O)[C@H](Cc2c[nH]c3ccccc23)NC(=O)[C@H](Cc2ccc(O)cc2)NC(=O)[C@H](Cc2c[nH]c3ccccc23)NC(=O)[C@H](Cc2c[nH]c3ccccc23)NC(=O)[C@H](CCC(=O)O)NC(=O)[C@H](Cc2ccc(O)cc2)NC(=O)[C@H](C(C)C)NC(=O)[C@H](Cc2c[nH]c3ccccc23)NC1=O [Example 1013] ({CH2CO}-FLWVYEWWYWACG-NH2; thioether N-12) | 0.637 µM
CC(C)C[C@@H]1NC(=O)[C@H](Cc2c[nH]c3ccccc23)NC(=O)[C@H](Cc2ccccc2)NC(=O)[C@H](Cc2c[nH]c3ccccc23)NC(=O)CNC(=O)[C@H](CO)NC(=O)[C@H](Cc2ccc(O)cc2)NC(=O)[C@H](C(C)C)NC(=O)[C@H](CCCNC(=N)N)NC(=O)[C@H](Cc2ccccc2)NC(=O)[C@H](Cc2ccccc2)NC(=O)CSC[C@@H](C(N)=O)NC1=O [Example 1014] ({CH2CO}-FFRVYSGWFWLC-NH2; thioether N-12) | 0.707 µM

The next compounds have a lower IC50 than those just listed; values first:

IC50 | Structure (SMILES)
0.011 µM | CC(C)C[C@@H]1NC(=O)[C@H](Cc2c[nH]c3ccccc23)NC(=O)[C@H](C(C)C)NC(=O)CNC(=O)[C@H](CO)NC(=O)[C@H](Cc2ccccc2)N(C)C(=O)[C@H](Cc2ccc(O)cc2)NC(=O)[C@H](Cc2ccc(O)cc2)NC(=O)[C@@H](Cc2ccccc2)NC(=O)CSC[C@@H](C(=O)NCC(N)=O)NC(=O)[C@H](C(C)C)NC(=O)[C@H](Cc2ccc(O)cc2)NC1=O [Example 1000] ({CH2CO}-[dF]YY[NMeF]SGVWLYVCG-NH2; thioether N-12)
0.049 µM | CC(C)C[C@@H]1NC(=O)[C@H](Cc2c[nH]c3ccccc23)NC(=O)[C@H](Cc2ccc(O)cc2)NC(=O)[C@H](Cc2c[nH]c3ccccc23)NC(=O)CNC(=O)[C@H](CO)NC(=O)[C@H](Cc2ccc(O)cc2)NC(=O)[C@H](C(C)C)NC(=O)[C@@H]2CCCN2C(=O)[C@H](Cc2ccc(O)cc2)NC(=O)[C@H](Cc2ccccc2)NC(=O)CSC[C@@H](C(=O)NCC(N)=O)NC1=O [Example 1001] ({CH2CO}-FYPVYSGWYWLCG-NH2; thioether N-12)
0.008 µM | CCCC[C@H]1C(=O)N[C@H](C(=O)NCC(N)=O)CSCC(=O)N[C@@H](Cc2ccccc2)C(=O)N[C@@H](Cc2ccc(O)cc2)C(=O)N[C@@H](Cc2c[nH]c3ccccc23)C(=O)N[C@@H](CO)C(=O)N[C@@H](CO)C(=O)N[C@@H](CCCNC(=N)N)C(=O)N(C)[C@@H](C)C(=O)N[C@@H](Cc2c[nH]c3ccccc23)C(=O)N[C@@H](Cc2ccc(O)cc2)C(=O)N[C@@H](CC(C)C)C(=O)N1C [Example 1003] ({CH2CO}-FYWSSR[NMeA]WYL[NMeNle]CG-NH2; thioether N-12)
0.03 µM | CC(C)C[C@@H]1NC(=O)[C@H](Cc2ccccc2)NC(=O)CSC[C@@H](C(=O)NCC(N)=O)NC(=O)[C@H](C)NC(=O)[C@H](Cc2ccc(O)cc2)NC(=O)[C@H](Cc2ccc(O)cc2)NC(=O)[C@H](Cc2c[nH]c3ccccc23)NC(=O)CNC(=O)[C@H](Cc2ccc(O)cc2)NC(=O)[C@H](CCCNC(=N)N)NC(=O)[C@H](C(C)C)NC(=O)[C@H](Cc2c[nH]c3ccccc23)NC1=O [Example 1005] ({CH2CO}-FLWVRYGWYYACG-NH2; thioether N-12)
0.036 µM | CC[C@H](C)[C@@H]1NC(=O)[C@H](Cc2ccccc2)NC(=O)CSC[C@@H](C(=O)NCC(N)=O)NC(=O)[C@H](C)NC(=O)[C@H](Cc2ccccc2)NC(=O)[C@H](Cc2ccc(O)cc2)NC(=O)[C@H](Cc2c[nH]c3ccccc23)NC(=O)CNC(=O)[C@H](CCC(=O)O)NC(=O)[C@H](Cc2ccc(O)cc2)NC(=O)[C@H](C(C)C)NC(=O)[C@H](Cc2c[nH]c3ccccc23)NC1=O [Example 1008] ({CH2CO}-FIWVYEGWYFACG-NH2; thioether N-12)
0.036 µM | CC(C)C[C@@H]1NC(=O)[C@H](Cc2c[nH]c3ccccc23)NC(=O)[C@H](Cc2ccccc2)NC(=O)[C@H](Cc2c[nH]c3ccccc23)NC(=O)CNC(=O)[C@H](CO)NC(=O)[C@H](Cc2ccc(O)cc2)NC(=O)[C@H](C(C)C)NC(=O)[C@@H]2CCCN2C(=O)[C@H](Cc2ccc(O)cc2)NC(=O)[C@H](Cc2ccccc2)NC(=O)CSC[C@@H](C(=O)NCC(N)=O)NC1=O [Example 1012] ({CH2CO}-FYPVYSGWFWLCG-NH2; thioether N-12)
0.017 µM | CC(C)C[C@@H]1NC(=O)[C@H](Cc2ccc(O)cc2)NC(=O)[C@H](Cc2ccccc2)NC(=O)CSC[C@@H](C(=O)NCC(N)=O)NC(=O)[C@H](CC(C)C)NC(=O)[C@H](Cc2ccccc2)N(C)C(=O)[C@H](Cc2ccc(O)cc2)NC(=O)[C@H](Cc2c[nH]c3ccccc23)NC(=O)CNC(=O)[C@H](Cc2cnc[nH]2)NC(=O)[C@H](Cc2ccc(O)cc2)NC(=O)[C@H](C(C)C)NC1=O [Example 1015] ({CH2CO}-FYLVYHGWY[NMeF]LCG-NH2; thioether N-12)
0.007 µM | CC(C)C[C@@H]1NC(=O)[C@H](Cc2ccc(O)cc2)NC(=O)[C@H](Cc2ccccc2)NC(=O)CSC[C@@H](C(=O)NCC(N)=O)NC(=O)[C@H](CC(C)C)NC(=O)[C@H](Cc2ccccc2)N(C)C(=O)[C@H](Cc2ccc(O)cc2)NC(=O)[C@H](Cc2c[nH]c3ccccc23)NC(=O)CNC(=O)[C@H](CCC(N)=O)NC(=O)[C@H](Cc2ccc(O)cc2)NC(=O)[C@H](C(C)C)NC1=O [Example 1016] ({CH2CO}-FYLVYQGWY[NMeF]LCG-NH2; thioether N-12)
0.014 µM | CC(C)C[C@@H]1NC(=O)[C@H](Cc2ccc(O)cc2)NC(=O)[C@H](Cc2ccccc2)NC(=O)CSC[C@@H](C(=O)NCC(N)=O)NC(=O)[C@H](CC(C)C)NC(=O)[C@H](Cc2ccccc2)N(C)C(=O)[C@H](Cc2ccc(O)cc2)NC(=O)[C@H](Cc2c[nH]c3ccccc23)NC(=O)CNC(=O)[C@H](CC(=O)O)NC(=O)[C@H](Cc2ccc(O)cc2)NC(=O)[C@H](C(C)C)NC1=O [Example 1017] ({CH2CO}-FYLVYDGWY[NMeF]LCG-NH2; thioether N-12)
0.03 µM | CC(C)C[C@@H]1NC(=O)[C@H](Cc2ccc(O)cc2)NC(=O)[C@H](Cc2ccccc2)NC(=O)CSC[C@@H](C(=O)NCC(N)=O)NC(=O)[C@H](CC(C)C)NC(=O)[C@H](Cc2ccccc2)N(C)C(=O)[C@H](Cc2ccc(O)cc2)NC(=O)[C@H](Cc2c[nH]c3ccccc23)NC(=O)CNC(=O)[C@H](CCCNC(=N)N)NC(=O)[C@H](Cc2ccc(O)cc2)NC(=O)[C@H](C(C)C)NC1=O [Example 1018] ({CH2CO}-FYLVYRGWY[NMeF]LCG-NH2; thioether N-12)
